Data set [1] has as its target T1, COX-2 (Mus musculus, UniProt Q05769).
T1 construct: lipopolysaccharide (LPS, 10 μg/mL) to induce COX-2; endogenous in cells; host or cells: J774 murine monocyte/macrophage cell line, LPS-stimulated
T1 sequence (Q05769 18-604): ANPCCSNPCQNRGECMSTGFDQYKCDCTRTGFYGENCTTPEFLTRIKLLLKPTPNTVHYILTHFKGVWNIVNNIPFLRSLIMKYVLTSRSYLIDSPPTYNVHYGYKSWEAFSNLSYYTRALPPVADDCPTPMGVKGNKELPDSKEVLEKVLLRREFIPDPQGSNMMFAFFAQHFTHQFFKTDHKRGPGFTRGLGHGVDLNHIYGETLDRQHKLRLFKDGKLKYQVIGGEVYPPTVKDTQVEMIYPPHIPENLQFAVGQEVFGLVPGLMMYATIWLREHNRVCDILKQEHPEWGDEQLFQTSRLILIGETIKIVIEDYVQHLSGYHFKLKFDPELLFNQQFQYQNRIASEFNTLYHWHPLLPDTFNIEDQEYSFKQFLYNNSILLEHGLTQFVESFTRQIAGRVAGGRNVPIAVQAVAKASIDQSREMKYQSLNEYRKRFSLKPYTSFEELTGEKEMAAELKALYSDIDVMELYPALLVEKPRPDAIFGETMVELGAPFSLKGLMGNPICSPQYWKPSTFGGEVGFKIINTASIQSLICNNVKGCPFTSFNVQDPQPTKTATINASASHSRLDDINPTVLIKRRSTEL
As to the kind of experiment: Assessment of COX-2 activity in LPS-stimulated J774 cells (PGE2 radioimmunoassay). It counts as cell-based, murine. How it is done: Cells were stimulated for 24 h with E. coli lipopolysaccharide (LPS, 10 μg/mL) to induce COX-2, in the absence or presence of test compounds, at the concentrations previously reported. The supernatants were collected for the measurement of PGE2 by radioimmunoassay.
(§1) Analysis. Throughout the time the experiments lasted, triplicate wells were used for the various conditions of treatment. Results are expressed as the mean, for 3 experiments, of the % inhibition of PGE2 production by test compounds with respect to control samples. Data fit was obtained using the sigmoidal dose-response equation (variable slope). The IC50 were calculated by GraphPad Instat program (GraphPad software).

Data set [2] has as its system rat model of hyperalgesia induced by carragenine. Description: Paw pressure test, hyperalgesia induced by carragenine. The settings on record: 20 mg/Kg. It counts as in vivo. How it is done:
(§2) Male Swiss albino mice (23-25 g) and Sprague Dawley or Wistar rats (150-200 g) were used. The animals were fed a standard laboratory diet and tap water ad libitum and kept at 23±1° C. with a 12 h light/dark cycle, light on at 7 a.m.
The nociceptive threshold in the rat was determined with an analgesimeter, according to the method described by Leighton et al, G. E.; Br. J. Pharmacol. 1988, 93, 553-560. Threshold pressure was measured before and 30, 60 and 120 min after treatment. An arbitrary cut-off value of 250 g was adopted. In order to induce an inflammatory process in the rat paw carrageenan (0.1 ml, 1%) was administered i.p. 4 h before test.

Data set [3] has as its system rat model of edema induced by carragenine. Description: Carrageenan-induced paw edema. It counts as in vivo. Conditions: 1 h, 20 mg/Kg, read-out: Edema inhibition 60 min, MPE. How it is done: as §2
Rats paw volumes were measured using a plethysmometer. Rats received the investigated compounds 4 hours after a 0.1-ml injection of 1.0% carrageenan in the right hind paw. Five hours after the injection of carrageenan (i.e. 1 hour after the administration of the investigated compound), the paw volume of the right hind paw was measured and compared with saline/carrageenan-treated controls. Results are reported as maximum percent effect (MPE), see below for detailed explanation.

Data set [4] addresses T2, COX-1 (Mus musculus, UniProt P22437).
T2 construct: endogenous in cells; host or cells: J774 murine monocyte/macrophage cell line
T2 sequence (P22437 27-602): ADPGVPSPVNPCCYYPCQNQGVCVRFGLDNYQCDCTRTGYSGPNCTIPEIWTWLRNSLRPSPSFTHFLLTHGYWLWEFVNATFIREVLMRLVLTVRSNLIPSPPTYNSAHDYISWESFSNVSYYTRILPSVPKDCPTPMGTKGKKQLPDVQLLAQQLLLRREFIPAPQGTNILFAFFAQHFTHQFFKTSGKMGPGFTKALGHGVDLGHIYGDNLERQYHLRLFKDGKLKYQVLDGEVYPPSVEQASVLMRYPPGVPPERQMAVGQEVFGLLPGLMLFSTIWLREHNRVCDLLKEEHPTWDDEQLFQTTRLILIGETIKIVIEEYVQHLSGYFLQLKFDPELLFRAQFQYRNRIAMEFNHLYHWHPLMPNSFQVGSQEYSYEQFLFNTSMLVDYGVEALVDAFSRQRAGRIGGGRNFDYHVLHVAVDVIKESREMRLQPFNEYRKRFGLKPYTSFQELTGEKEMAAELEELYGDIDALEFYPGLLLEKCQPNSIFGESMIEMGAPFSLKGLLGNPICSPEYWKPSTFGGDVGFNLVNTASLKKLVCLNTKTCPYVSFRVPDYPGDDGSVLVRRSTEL
Conditions: Table 1, reported by reference; cited from earlier work.

Data set [5] deals with T1, COX-2. The settings on record: Table 1, reported by reference; cited from earlier work.
For data set [6], the target named is T2, COX-1. Description: Assessment of COX-1 activity in J774 cells (arachidonic acid, PGE2 radioimmunoassay). It counts as cell-based, murine. Conditions: Table 8, Formula I-c. How it is done: Stock solutions of the reference standard or of the test compounds were prepared in dimethyl sulphoxide, and an equivalent amount of dimethyl sulphoxide was included in control samples. At the end of the incubation the supernatants were collected for the measurement of PGE2 by radioimmunoassay.
as §1

Setting [7] is: 0.5 h, 30 min, read-out: Analgesia 30 min MPE.
Where [8] appears, read: 1 h, 60 min, read-out: Analgesia 60 min MPE.
[9] abbreviates: Table 8, Formula I-c, read-out: COX-2 IC50.

Like-named read-outs stand apart in the source and are kept apart here.

As a reminder, the melting point is the temperature of the solid-liquid transition. Compound `CCOC(=O)C(O)c1cc(-c2ccc(S(C)(=O)=O)cc2)n(-c2ccccc2)c1C` (racemic) [Example 7, Ethyl[2-hydroxy-2-[2-methyl-5-(4-methylsulphonyl)phenyl-1-phenyl-1H-pyrrol-3-yl]]acetate] had a melting point of 145 °C.
Still for that read-out and setting: in the case of `CCOC(=O)C(O)c1cc(-c2ccc(S(C)(=O)=O)cc2)n(-c2ccc(OC)cc2)c1C` (racemic) [Example 8, Ethyl[2-hydroxy-2-[1-(4-methoxy)phenyl-2-methyl-5-(4-methylsulphonyl)phenyl-1H-pyrrol-3-yl]]acetate] it was 130 °C.
A word on the IC50: it is the concentration at which inhibition is half-maximal. For `CCOC(=O)C(O)c1cc(-c2ccc(S(C)(=O)=O)cc2)n(-c2cccc(F)c2)c1C` (racemic) [Example 9, Ethyl[2-hydroxy-2-[1-(3-fluoro)phenyl-2-methyl-5-(4-methylsulphonyl)phenyl-1H-pyrrol-3-yl]]acetate], at COX-2 [1] (Table 6, Formula Ib), the “COX-1/COX-2 Selectivity Index (IC50 ratio)” value was greater than 310. In addition, on COX-2 [1] (Table 6, Formula Ib, read-out: COX-2 IC50), the IC50 worked out at 0.32 µM. Further, the inhibition in vivo at 20 mg/kg was 80% in data set [2] (0.5 h, Table 7, 30 min, read-out: Analgesia 30 min MPE); 40% in data set [2] (1 h, Table 7, 60 min, read-out: Analgesia 60 min MPE); 40% in data set [3] (Table 7, 60 min).
With `Cc1c(CC(=O)O)cc(-c2ccc(S(C)(=O)=O)cc2)n1-c1ccccc1` [Compound 1a, 2-[2-methyl-5-(4-methylsulphonyl)phenyl-1-phenyl-1H-pyrrol-3-yl]acetic acid], the IC50 at COX-1 [4] was greater than 100 µM. Moreover, on COX-2 [5], the “COX-1/COX-2 Selectivity Index (IC50 ratio)” value is greater than 100.
Consider `CCOC(=O)Cc1cc(-c2ccc(S(C)(=O)=O)cc2)n(-c2ccccc2)c1C` [Compound 1b, Ethyl 2-[2-methyl-5-(4-methylsulphonyl)phenyl-1-phenyl-1H-pyrrol-3-yl]acetate, reference compound], for which the results for the inhibition in vivo at 20 mg/kg in data set [2] (setting [7]), in data set [2] (setting [8]) and in data set [3] (60 min) were 18%, 30% and 10%, respectively. In addition, the IC50 on COX-1 [4] is greater than 100 µM. In addition, at COX-2 [5], the “COX-1/COX-2 Selectivity Index (IC50 ratio)” value was greater than 2500.
For the compound `Cc1ccc(-n2c(-c3ccc(S(C)(=O)=O)cc3)cc(CC(=O)O)c2C)cc1` [Compound 2a, 2-[1-(4-methyl)phenyl-2-methyl-5-(4-methylsulphonyl)phenyl-1H-pyrrol-3-yl]acetic acid], the half-inhibitory concentration (IC50) on COX-1 [4] is greater than 100 µM. Also, the “COX-1/COX-2 Selectivity Index (IC50 ratio)” value at COX-2 [5] is greater than 200.
With `CCOC(=O)Cc1cc(-c2ccc(S(C)(=O)=O)cc2)n(-c2ccc(C)cc2)c1C` [Compound 2b, Ethyl 2-[1-(4-methyl)phenyl-2-methyl-5-(4-methylsulphonyl)phenyl-1H-pyrrol-3-yl]acetate], on COX-1 [4], the half-inhibitory concentration (IC50) is greater than 100 µM. In addition, the “COX-1/COX-2 Selectivity Index (IC50 ratio)” value on COX-2 [5] is reported as greater than 200.
On to `Cc1c(CC(=O)O)cc(-c2ccc(S(C)(=O)=O)cc2)n1-c1ccc(C(F)(F)F)cc1` [Compound 3a], for which, at COX-1 [4], the IC50 was greater than 100 µM. For the same compound, the “COX-1/COX-2 Selectivity Index (IC50 ratio)” value on COX-2 [5] is given as greater than 900.
Consider `CCOC(=O)Cc1cc(-c2ccc(S(C)(=O)=O)cc2)n(-c2ccc(C(F)(F)F)cc2)c1C` [Compound 3b, Ethyl 2-[2-methyl-5-(4-methylsulphonyl)phenyl-1-(4-trifluoromethyl)phenyl-1H-pyrrol-3-yl]acetate], for which the 50% inhibitory concentration (IC50) at COX-1 [4] is greater than 100 µM. Also, the “COX-1/COX-2 Selectivity Index (IC50 ratio)” value on COX-2 [5] is listed as greater than 1600.
`CCOC(=O)Cc1cc(-c2ccc(S(C)(=O)=O)cc2)n(-c2cccc(F)c2)c1C` [Compound 4b, Ethyl 2-[1-(3-fluoro)phenyl-2-methyl-5-(4-methylsulphonyl)phenyl-1H-pyrrol-3-yl]acetate, reference compound] returned a selectivity at COX-2 [1] greater than 10000. For the same compound, the IC50 on COX-2 [1] (read-out: in vitro COX-2 inhibitory potency IC50) amounted to 0.01 µM. In addition, the inhibition in vivo at 20 mg/kg came to 28% in data set [2] (setting [7]), 40% in data set [2] (setting [8]) and 30% in data set [3] (60 min).
`CCCCOC(=O)Cc1cc(-c2ccc(S(C)(=O)=O)cc2)n(-c2ccccc2)c1C` [Example 6, n-Butyl[1-phenyl-2-methyl-5-(4-methylsulphonyl)phenyl-1H-pyrrol-3-yl]acetate] returned a melting point of 124 °C. In addition, the “COX-1/COX-2 Selectivity Index (IC50 ratio)” value on COX-2 [1] (Table 2, Formula Ia) is reported as greater than 7100.
Consider `CNC(=O)Cc1cc(-c2ccc(S(C)(=O)=O)cc2)n(-c2ccccc2)c1C` [Example 13, N-Methyl-[2-methyl-5-(4-methylsulphonyl)phenyl-1-phenyl-1H-pyrrol-3-yl]acetamide], for which the melting point is 178 to 181 °C. This compound came in with a concentration for half-maximal inhibition (IC50) against COX-1 [6] greater than 100 µM. Besides, at COX-2 [1] (setting [9]), the IC50 worked out at 1 µM.
The compound `Cc1c(CC(=O)N(C)C)cc(-c2ccc(S(C)(=O)=O)cc2)n1-c1ccccc1` [Example 15, N,N-Dimethyl-[2-methyl-5-(4-methylsulphonyl)phenyl-1-phenyl-1H-pyrrol-3-yl]acetamide] came in with a melting point of 175 to 179 °C. Besides, the half-maximal inhibitory concentration (IC50) on COX-1 [6] was greater than 100 µM. At COX-2 [1] (setting [9]), the IC50 was determined as 0.58 µM.
As for `CCCNC(=O)NCCc1cc(-c2ccc(S(C)(=O)=O)cc2)n(-c2ccccc2)c1C` [Example 39, N-[2-(2-Methyl-5-(4-(methylsulphonyl)phenyl)-1-phenyl-1H-pyrrol-3-yl)ethyl]-3-propyl urea], the melting point lay in the range of 157 to 160 °C.
